Laboratory results published in patent US9458133B2, “Isoquinolines as potassium ion channel inhibitors” (BRISTOL-MYERS SQUIBB COMPANY, priority 2013, dated 2016).

Target: T1, human Kv 1.5 (Homo sapiens, UniProt P22460)
T1 construct: expressed in transfected cells; host or cells: mouse L-929 fibroblasts stably expressing human Kv1.5
Test: Block of IKur current in patch clamped L-929 cells stably expressing human Kv1.5
Format: cell-based
Conditions: L929, 0.3 μM; patch clamped mammalian L-929 cells expressing human Kv1.5 (IKur); read-out: KV1_5% Inh L929 @0.3 μM
Source text: Synders, D. J. et al., “A rapidly activating and slowly inactivating potassium channel cloned from human heart: functional analysis after stable mammalian cell culture expression”, J. Gen. Physiol., 101:513-543 (1993). […]

T1 sequence (P22460 whole entry): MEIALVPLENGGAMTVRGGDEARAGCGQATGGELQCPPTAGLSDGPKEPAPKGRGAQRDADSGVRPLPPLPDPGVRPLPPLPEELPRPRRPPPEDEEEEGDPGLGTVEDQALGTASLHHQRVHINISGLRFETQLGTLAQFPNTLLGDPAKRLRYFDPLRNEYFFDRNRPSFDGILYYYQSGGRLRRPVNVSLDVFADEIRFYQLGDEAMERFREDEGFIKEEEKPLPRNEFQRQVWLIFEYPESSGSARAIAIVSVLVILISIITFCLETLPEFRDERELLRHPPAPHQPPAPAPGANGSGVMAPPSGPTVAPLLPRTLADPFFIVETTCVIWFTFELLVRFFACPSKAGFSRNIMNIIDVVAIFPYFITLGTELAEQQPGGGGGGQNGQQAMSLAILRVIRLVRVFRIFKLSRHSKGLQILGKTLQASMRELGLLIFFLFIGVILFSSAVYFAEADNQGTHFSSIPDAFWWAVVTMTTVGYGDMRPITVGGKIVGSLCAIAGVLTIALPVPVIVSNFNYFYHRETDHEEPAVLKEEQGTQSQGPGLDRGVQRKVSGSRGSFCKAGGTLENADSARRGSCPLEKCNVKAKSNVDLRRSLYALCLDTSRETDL

SMILES	inhibition at 0.3 µM
CS(=O)(=O)Nc1ccc(-c2c(Cl)nc(NCc3ccccn3)c3c(-c4ccccc4)cccc23)cc1 [Example 69, N-(4-(3-chloro-8-phenyl-1-(pyridin-2-ylmethylamino)isoquinolin-4-yl)phenyl)methanesulfonamide]	98.4%
N#Cc1cccc(-c2cc3cccc(-c4ccccc4)c3c(NCc3ccccn3)n2)c1 [Example 39, 3-(8-phenyl-1-(pyridin-2-ylmethylamino)isoquinolin-3-yl)benzonitrile]	66.8%
C1=C(c2cnc(NCc3ccccc3)c3c(-c4ccccc4)cccc23)CCOC1 [Example 28, N-benzyl-4-(3,6-dihydro-2H-pyran-4-yl)-8-phenylisoquinolin-1-amine]	76.1%
CC(Nc1nc(Cl)c(-c2cccc(S(N)(=O)=O)c2)c2cccc(-c3ccccc3)c12)c1ccccc1 (stereo not drawn) [Example 79, 3-(3-chloro-8-phenyl-1-(1-phenylethylamino)isoquinolin-4-yl)benzenesulfonamide]	67.5%
NS(=O)(=O)c1ccc(-c2cc3cccc(-c4ccccc4)c3c(NCc3ccccn3)n2)cc1 [Example 33, 4-(8-phenyl-1-(pyridin-2-ylmethylamino)isoquinolin-3-yl)benzenesulfonamide]	73.4%
CC(Nc1nc(Cl)c(-c2cncc(S(N)(=O)=O)c2)c2cccc(-c3ccccc3)c12)c1ccccn1 (stereo not drawn) [Example 26, 5-(3-chloro-8-phenyl-1-(1-(pyridin-2-yl)ethylamino)isoquinolin-4-yl)pyridine-3-sulfonamide]	98.8%
N#Cc1ccc(-c2cc3cccc(-c4ccccc4)c3c(NCc3ccccn3)n2)cc1 [Example 40, 4-(8-phenyl-1-(pyridin-2-ylmethylamino)isoquinolin-3-yl)benzonitrile]	92.3%
Cc1ccccc1CNc1nc(-c2cncc(S(N)(=O)=O)c2)cc2cccc(-c3ccccc3)c12 [Example 45, 5-(1-(2-methylbenzylamino)-8-phenylisoquinolin-3-yl)pyridine-3-sulfonamide]	78.5%
CC(=O)Nc1cncc(-c2cc3cccc(-c4ccccc4)c3c(NCc3ccccn3)n2)c1 [Example 3, N-(5-(8-Phenyl-1-(pyridin-2-ylmethylamino)isoquinolin-3-yl)pyridin-3-yl)acetamide]	71.9%
Cc1cc(C)cc(CNc2nc(-c3cncc(S(N)(=O)=O)c3)cc3cccc(-c4ccccc4)c23)c1 [Example 53, 5-(1-(3,5-dimethylbenzylamino)-8-phenylisoquinolin-3-yl)pyridine-3-sulfonamide]	40.1%
NS(=O)(=O)c1cncc(-c2cc3cccc(-c4ccccc4)c3c(NCCOc3ccccc3)n2)c1 [Example 52, 5-(1-(2-phenoxyethylamino)-8-phenylisoquinolin-3-yl)pyridine-3-sulfonamide]	55.8%
CC(=O)Nc1ccc(-c2cc3cccc(-c4ccccc4)c3c(NCc3ccccn3)n2)cn1 [Example 64, N-(5-(8-phenyl-1-(pyridin-2-ylmethylamino)isoquinolin-3-yl)pyridin-2-yl)acetamide]	57.5%
CC(=O)Nc1cccc(-c2c(Cl)nc(NCc3ccccn3)c3c(-c4ccccc4)cccc23)c1 [Example 60, N-(3-(3-chloro-8-phenyl-1-(pyridin-2-ylmethylamino)isoquinolin-4-yl)phenyl)acetamide]	96.2%
c1ccc(CNc2ncc(-c3cncc(-c4nn[nH]n4)c3)c3cccc(-c4ccccc4)c23)cc1 [Example 19, 4-(5-(2H-Tetrazol-5-yl)pyridin-3-yl)-N-benzyl-8-phenylisoquinolin-1-amine]	90%
c1ccc(-c2cccc3cc(-c4cc[nH]n4)nc(NCc4ccccn4)c23)cc1 [Example 23, 8-phenyl-3-(1H-pyrazol-3-yl)-N-(pyridin-2-ylmethyl)isoquinolin-1-amine]	80.2%
NS(=O)(=O)c1cccc(-c2cnc(NCc3ccccn3)c3c(-c4ccccc4)cccc23)c1 [Example 85, 3-(8-phenyl-1-(pyridin-2-ylmethylamino)isoquinolin-4-yl)benzenesulfonamide]	99%
NC(=O)Nc1cccc(-c2cc3cccc(-c4ccccc4)c3c(NCc3ccccn3)n2)c1 [Example 38, 1-(3-(8-phenyl-1-(pyridin-2-ylmethylamino)isoquinolin-3-yl)phenyl)urea]	90.8%
NS(=O)(=O)c1cccc(-c2cc3cccc(-c4ccccc4)c3c(NCc3ccccn3)n2)c1 [Example 36, 3-(8-phenyl-1-(pyridin-2-ylmethylamino)isoquinolin-3-yl)benzenesulfonamide]	94.6%
NS(=O)(=O)c1cccc(-c2c(Cl)nc(NCc3ccccc3)c3c(-c4ccccc4)cccc23)c1 [Example 78, 3-(1-(benzylamino)-3-chloro-8-phenylisoquinolin-4-yl)benzenesulfonamide]	91%
NS(=O)(=O)c1cncc(-c2cnc(NCC3CCCCO3)c3c(-c4ccccc4)cccc23)c1 (stereo not drawn) [Example 82, 5-(8-phenyl-1-((tetrahydro-2H-pyran-2-yl)methylamino)isoquinolin-4-yl)pyridine-3-sulfonamide]	85%

SMILES	inhibition at 0.3 µM
NC(=O)Nc1cncc(-c2cc3cccc(-c4ccccc4)c3c(NCc3ccccn3)n2)c1 [Example 4, 1-(5-(8-Phenyl-1-(pyridin-2-ylmethylamino)isoquinolin-3-yl)pyridin-3-yl)urea]	88.7%
Nc1ccccc1-c1cc2cccc(-c3ccccc3)c2c(NCc2ccccn2)n1 [Example 49, 3-(2-aminophenyl)-8-phenyl-N-(pyridin-2-ylmethyl)isoquinolin-1-amine]	52.2%
NS(=O)(=O)c1cccc(-c2cc3cccc(-c4ccccc4)c3c(NCCCc3ccccc3)n2)c1 [Example 44, 3-(8-phenyl-1-(3-phenylpropylamino)isoquinolin-3-yl)benzenesulfonamide]	18.6%
NS(=O)(=O)c1ccccc1-c1cc2cccc(-c3ccccc3)c2c(NCc2ccccn2)n1 [Example 65, 2-(8-phenyl-1-(pyridin-2-ylmethylamino)isoquinolin-3-yl)benzenesulfonamide]	50.5%
Cc1c(-c2cncc(S(N)(=O)=O)c2)nc(NCc2ccccn2)c2c(-c3ccccc3)cccc12 [Example 8, 5-(4-Methyl-8-phenyl-1-(pyridin-2-ylmethylamino)isoquinolin-3-yl)pyridine-3-sulfonamide]	61.4%
Cc1cnc(CNc2nc(-c3cncc(S(N)(=O)=O)c3)cc3cccc(-c4ccccc4)c23)cn1 [Example 74, 5-(1-((5-methylpyrazin-2-yl)methylamino)-8-phenylisoquinolin-3-yl)pyridine-3-sulfonamide]	79.5%
Clc1nc(NCc2ccccc2)c2c(-c3ccccc3)cccc2c1C1=CCOCC1 [Example 83, N-benzyl-3-chloro-4-(3,6-dihydro-2H-pyran-4-yl)-8-phenylisoquinolin-1-amine]	19.3%
Nc1ccc(-c2c(Cl)nc(NCc3ccccn3)c3c(-c4ccccc4)cccc23)cc1 [Example 68, 4-(4-aminophenyl)-3-chloro-8-phenyl-N-(pyridin-2-ylmethyl)isoquinolin-1-amine]	98.3%
NS(=O)(=O)c1cncc(-c2cc3cccc(-c4ccccc4)c3c(NCc3ccc(F)cc3F)n2)c1 [Example 50, 5-(1-(2,4-difluorobenzylamino)-8-phenylisoquinolin-3-yl)pyridine-3-sulfonamide]	54.1%
O=C(O)c1cncc(-c2c(Cl)nc(NCc3ccccn3)c3c(-c4ccccc4)cccc23)c1 [Example 12, 5-(3-Chloro-8-phenyl-1-(pyridin-2-ylmethylamino)isoquinolin-4-yl)nicotinic acid]	52.3%
CC(=O)Nc1ccccc1-c1cc2cccc(-c3ccccc3)c2c(NCc2ccccn2)n1 [Example 30, N-(2-(8-phenyl-1-(pyridin-2-ylmethylamino)isoquinolin-3-yl)phenyl)acetamide]	51.3%
NS(=O)(=O)Nc1ccccc1-c1cc2cccc(-c3ccccc3)c2c(NCc2ccccn2)n1 [Example 51]	86.3%
NC(=O)c1ccc(-c2c(Cl)nc(NCc3ccccn3)c3c(-c4ccccc4)cccc23)cc1 [Example 57, 4-(3-chloro-8-phenyl-1-(pyridin-2-ylmethylamino)isoquinolin-4-yl)benzamide]	98.6%
O=C(Nc1cccc(-c2cc3cccc(-c4ccccc4)c3c(NCc3ccccn3)n2)c1)N1CCOCC1 [Example 6, N-(3-(8-Phenyl-1-(pyridin-2-ylmethylamino)isoquinolin-3-yl)phenyl)morpholine-4-carboxamide]	92.2%
NS(=O)(=O)c1cncc(-c2c(Cl)nc(NCc3c(F)cccc3F)c3c(-c4ccccc4)cccc23)c1 [Example 27, 5-(3-chloro-1-(2,6-difluorobenzylamino)-8-phenylisoquinolin-4-yl)pyridine-3-sulfonamide]	93.6%
NS(=O)(=O)Nc1cncc(-c2cc3cccc(-c4ccccc4)c3c(NCc3ccccn3)n2)c1 [Example 5]	75.6%
NC(=O)c1nc(NCc2ccccc2)c2c(-c3ccccc3)cccc2c1-c1cncc(S(N)(=O)=O)c1 [Example 17, 1-(Benzylamino)-8-phenyl-4-(5-sulfamoylpyridin-3-yl)isoquinoline-3-carboxamide]	93.5%
CS(=O)(=O)N(c1cncc(-c2cc3cccc(-c4ccccc4)c3c(NCc3ccccn3)n2)c1)S(C)(=O)=O [Example 32, N-(methylsulfonyl)-N-(5-(8-phenyl-1-(pyridin-2-ylmethylamino)isoquinolin-3-yl)pyridin-3-yl)methanesulfonamide]	70.7%
CNS(=O)(=O)c1cccc(-c2cc3cccc(-c4ccccc4)c3c(NCc3ccccn3)n2)c1 [Example 34, N-methyl-3-(8-phenyl-1-(pyridin-2-ylmethylamino)isoquinolin-3-yl)benzenesulfonamide]	93.5%
